Measured values published in patent US20200323212A1, “PEST CONTROL COMPOSITION AND USE OF SAME” (SUMITOMO CHEMICAL COMPANY, LIMITED, priority 2017, published 2020).

Test system: ticks
Test: Vial contact test, tick mortality after 48 hours (Test Examples 11, 14, 15)
Assay type: in vivo
Method: The Colby's calculation equation is shown as Equation 1 below.
E=X+Y−X×Y/100 (Equation 1)
Zero point two (0.2) mL of the solution was dropped to a 20 mL volume of vial, and the inner wall of the vial was coated homogeneously with the chemicals, and air-dried. Thereafter, ten ticks were released in the vial, and the vials were sealed with a lid. After 48 hours, the number of died ticks were examined, and the mortality (%) was calculated by the following equation 2. The three repetitions of each application dose were conducted.
Mortality (%)=(Number of dead pests/Number of supplied pests)×100 (Equation 2)
Zero point two (0.2) mL of the solution was dropped to a 20 mL volume of a vial, and the inner wall of the vial was coated homogeneously with the chemicals, and air-dried. Thereafter, ten ticks were released in the vial, and the vials were sealed with a lid. After 48 hours, the number of died ticks were examined, and the mortality (%) was calculated by the following equation 5. The three repetitions of each application dose were conducted.
Mortality (%)=(Number of dead pests/Number of supplied pests)×100 (Equation 5)
Zero point two (0.2) mL of the solution was dropped to a 20 mL volume of a vial, and the inner wall of the vial was coated homogeneously with the chemicals, and air-dried. Thereafter, ten ticks were released in the vial, and the vials were sealed with a lid. After 48 hours, the number of died ticks were examined, and the mortality (%) was calculated by the following equation 6. The three repetitions of each application dose were conducted.
Mortality (%)=(Number of dead pests/Number of supplied pests)×100 (Equation 6)

| SMILES | Mortality (Measured value) (N,N-diethyl-m-toluamide alone 10 mg/m^2) | Mortality (Measured value) (N,N-diethyl-m-toluamide alone 20 mg/m^2) | Mortality (Measured value) (sec-butyl=2-(2-hydroxyethyl)piperidine-1-carboxylate alone 10 mg/m^2) |
| --- | --- | --- | --- |
| CCN(CC)C(=O)c1cccc(C)c1 [N,N-diethyl-m-toluamide] | 40% | 50% | – |
| CCC(C)OC(=O)N1CCCCC1CCO (stereo not drawn) [sec-butyl=2-(2-hydroxyethyl)piperidine-1-carboxylate] | – | – | 70% |
